From paper PMC5201116, “Bioactive Flavonoids and Catechols as Hif1 and Nrf2 Protein Stabilizers - Implications for Parkinson’s Disease” (Aging and Disease, 2016)
Where two headings read alike, the source gives them in different places.

Key:
[1] = Iron binding constant, calcein displacement assay; format: physicochemical; conditions: for Iron complex Diss. Const: calcein displacement
Text: Calcein displacement assay in the presence of varied concentrations of flavonoids and catechols has been used. Calcein release from its complex with iron was monitored by fluorescence as described in [26].

[2] = tested on: HRE-luciferase reporter (HT22 hippocampal cell line); assay: HRE-luc reporter assay; format: cell-based; conditions: for fold induction at 10 µM: Mus musculus, HT-22, 3 h, read-out: HRE-luc fold activation; for fold induction at 10 µM / HRE-luc fold activation: at 10 µM
Text: A promoter-reporter construct that contained 68 bp of a known hypoxia and HIF-1 regulated gene, enolase, containing a wild type hypoxia response element (HRE, 5’-RCTGT-3’), is a widely used approach for screening for HIF activators of different mechanism of action. A cell-based assay with HRE-luciferase reporter system is based on transfected immortalized hippocampal cell line (HT22) and allows screening for a broad spectrum of compounds that include: activators of HIF transcription; activators of HIF binding to HRE; and effectors of HIF protein stability (PHD inhibitors, pVHL & proteasome inhibitors). The assay was performed the same way as for HIF ODD-luc reporter except the cells were plated at the density of 10,000 cell per well and incubated overnight.

[3] = tested on: Neh2-luc reporter (SH-SY5Y cell line); assay: Neh2-luc reporter assay; format: cell-based; conditions: for Neh2-luc fold activation / fold induction at 10 µM: at 10 µM, 3 h incubation; for EC50: Neh2-luc; for fold induction at 10 µM: read-out: Neh2-luc fold activation
Procedure: (§1) SH-SY5Y cell lines stably expressing HIF1 ODD-luc or Neh2-luc reporters were grown in the DMEM/F12 supplemented with GlutaMAX (Thermo Fisher Scientific) containing 10% FBS, 100 U/ml penicillin, and 100 μg/ml streptomycin and plated into 384-well white flat-bottom plates at 7,000 cell/well in 30 µl serum and incubated overnight at 37°C, 5% CO2. The next day compounds were added to a final concentration of 10 µM and the plates were incubated for 3 hours at 37°C. Reporter activation after 3 h incubation with the studied compound was compared to that for ciclopirox (HIF1 ODD-luc reporter) or TBHQ (Neh2-luc reporter), taken as 100%. Luciferase reporter activity was measured with a SteadyGlo reagent from Promega providing stable reading for 1 h.
(§2) Cells were plated at the density of 25,000 cell per well using a WellMate multichannel dispenser from Matrix (Thermo Fisher Scientific, Waltham, MA) and grown overnight on DMEM/F12+GlutaMAX (100 µl per well). Then an inhibitor was added, and the plates were incubated for a fixed time interval; the medium was removed, cells lysed, and luciferase activity was measured on a SpectraMax M5e platereader (Molecular Devices, Sunnyvale, CA) with BrightGlo™ reagent (Promega, Madison, WI). The reporter activation was normalized to the background luminescence. The effect of 0.5 mM N-acetylcysteine (NAC) was studied by simultaneous addition of 5 µL of 10 mM stock of NAC in water and 2 µL of 50x stock solutions of a flavonoid in DMSO.

[4] = tested on: HIF1 ODD-luc reporter (SH-SY5Y cell line); assay: HIF1 ODD-luc reporter assay; format: cell-based; conditions: for fold induction at 10 µM: Homo sapiens, SH-SY5Y, 3 h, read-out: ODD-luc fold activation; for fold induction at 10 µM / ODD-luc fold activation: 3 h incubation, at 10 µM
Procedure: as §1, §2

[5] = Non-enzymatic ferricyanide reduction rate constant; format: physicochemical; conditions: 1 mM ferricyanide, pH 7.0
Procedure: The rate of ferricyanide reduction by individual flavonoids was measured spectrophotometrically at 420 nm with the fixed concentration of ferricyanide (1 mM) and varied concentrations of a flavonoid in Potassium-phosphate buffer, pH 7.0. The rate constant for direct ferricyanide reduction was calculated from the slope of the dependence reaction rate vs flavonoid concentration and used as a measure of flavonoid non-specific reducing power.

[6] = design: method as in PMID 17112238; conditions: cited from earlier work

## O=c1c(O)c(-c2ccccc2)oc2ccccc12 [compound 1, 3-Hydroxyflavone]
[1]
  Iron complex Diss. Const: 2.0 ± 0.2 µM
[1]; listed as 3-Hydroxyflavone
  Iron complex Diss. Const: ca. 2 µM
[2]
  fold induction at 10 µM: 1.5 ± 0.2
[3]
  Neh2-luc fold activation: inactive
[3]; listed as 3-hydroxyflavone
  Neh2-luc fold activation: completely inactive
[4]
  fold induction at 10 µM: 1.5 ± 0.2
[5]
  FC red Rate Const: inactive

## O=c1c(O)c(-c2ccccc2)oc2cc(O)ccc12 [compound 2, 3,7-Dihydroxy-]
[1]
  Iron complex Diss. Const: 2.5 ± 0.3 µM
[5]
  FC red Rate Const: inactive

## O=c1c(O)c(-c2ccc(O)cc2)oc2ccccc12 [compound 3, 3,4'-Dihydroxy-]
[1]
  Iron complex Diss. Const: 2.5 ± 0.2 µM
[2]
  HRE-luc fold activation: Inactive
[4]
  ODD-luc fold activation: Inactive
[5]
  FC red Rate Const: Inactive

## COc1ccc(-c2oc3ccccc3c(=O)c2O)cc1 [compound 4, 3-Hydroxy-4'-methoxy-]
[1]
  Iron complex Diss. Const: 4.0 ± 0.4 µM

## COc1ccc2c(=O)c(O)c(-c3ccccc3)oc2c1 [compound 5, 3-Hydroxy-7-methoxy-]
[1]
  Iron complex Diss. Const: 5.0 ± 0.5 µM
[1]; listed as 3-hydroxy-7-methoxyflavone
  Iron complex Diss. Const: ca. 5 µM
[2]
  HRE-luc fold activation: Inactive
[3]
  Neh2-luc fold activation: Inactive
[4]
  ODD-luc fold activation: Inactive

## COc1ccc2c(=O)c(OC)c(-c3ccccc3)oc2c1 [compound 6, 3,7-Dimethoxy-]
[2]
  HRE-luc fold activation: inactive
[3]
  Neh2-luc fold activation: Inactive
[4]
  ODD-luc fold activation: Inactive

## O=c1c(O)c(-c2ccccc2)oc2cccc(O)c12 [compound 7, 3,5-Dihydroxy-]
[1]
  Iron complex Diss. Const: 2.5 ± 0.3 µM
[2]
  fold induction at 10 µM: 2 ± 0.2
[3]
  Neh2-luc fold activation: Inactive
[4]
  fold induction at 10 µM: 1.3 ± 0.2
[5]
  FC red Rate Const: inactive

## O=c1c(O)c(-c2ccccc2)oc2cc(O)cc(O)c12 [compound 8, Galangin]
[1]
  Iron complex Diss. Const: 3.5 ± 0.4 µM
[2]
  fold induction at 10 µM: 1.3 ± 0.2
[3]
  Neh2-luc fold activation: Inactive
[4]
  ODD-luc fold activation: Inactive
[6]
  EHOMO: -8.90 eV
[5]
  FC red Rate Const: 48000 ± 6000 M⁻¹ s⁻¹

## O=c1c(O)c(-c2ccc(O)cc2)oc2cc(O)cc(O)c12 [compound 9, Kaempferol]
[1]
  Iron complex Diss. Const: 2.5 ± 0.3 µM
[2]
  fold induction at 10 µM: 1.5 ± 0.2
[3]; Homo sapiens, SH-SY5Y
  EC50: 5 µM
  fold induction at 10 µM: 15 ± 2
[3]; simultaneous addition of 0.5 mM NAC, results not shown
  drop in Neh2-luc reporter activation with NAC: 2 fold
[4]
  ODD-luc fold activation: Inactive
[6]
  EHOMO: -8.74 eV
[5]
  FC red Rate Const: 369000 ± 42000 M⁻¹ s⁻¹

## O=c1c(O)c(-c2ccc(O)cc2O)oc2cc(O)cc(O)c12 [compound 12, Morin]
[1]
  Iron complex Diss. Const: 2.5 ± 0.3 µM
[2]
  fold induction at 10 µM: 1.3 ± 0.2
[3]
  Neh2-luc fold activation: Inactive
[3]; listed as morin
  Neh2-luc fold activation: completely inactive
[4]
  ODD-luc fold activation: Inactive
[6]
  EHOMO: -8.81 eV

## O=c1c(O)c(-c2cc(O)c(O)c(O)c2)oc2cc(O)cc(O)c12 [compound 13, Myricetin]
[1]
  Iron complex Diss. Const: 2.0 ± 0.2 µM
[2]
  fold induction at 10 µM: 2 ± 0.2
[3]; Homo sapiens, SH-SY5Y
  EC50: 2 µM
  fold induction at 10 µM: 25 ± 3
[4]
  fold induction at 10 µM: 1.3 ± 0.2
[6]
  EHOMO: -8.80 eV

## O=c1cc(-c2ccccc2)oc2cccc(O)c12 [compound 14, 5-hydroxyflavone]
[1]
  Iron complex Diss. Const: Inactive
[1]; listed as 5-hydroxyflavone
  Iron complex Diss. Const: does not bind iron in solution
[2]
  HRE-luc fold activation: Inactive
[3]
  Neh2-luc fold activation: Inactive
[4]
  ODD-luc fold activation: Inactive
[6]
  EHOMO: -9.12 eV

## O=c1cc(-c2ccccc2)oc2cc(O)cc(O)c12 [compound 15, Chrysin]
[1]
  Iron complex Diss. Const: Inactive
[2]
  fold induction at 10 µM: 1.2 ± 0.15
[3]
  Neh2-luc fold activation: Inactive
[4]
  ODD-luc fold activation: Inactive
[6]
  EHOMO: -9.25 eV

## O=c1cc(-c2ccc(O)cc2)oc2cc(O)cc(O)c12 [compound 16, Apigenin]
[1]
  Iron complex Diss. Const: Inactive
[2]
  fold induction at 10 µM: 1.3 ± 0.15
[3]
  Neh2-luc fold activation: Inactive
[4]
  ODD-luc fold activation: Inactive
[6]
  EHOMO: -9.15 eV

## O=c1cc(-c2ccccc2)oc2c(O)c(O)ccc12 [compound 20, 7,8-Dihydroxyflavone]
[1]
  iron dissociation constant: ca. 700 nM
  Iron complex Diss. Const: 0.7 ± 0.1 µM
[2]
  fold induction at 10 µM: 3.6 ± 0.4
[3]
  Neh2-luc fold activation: Inactive
[4]
  fold induction at 10 µM: 1.5 ± 0.2
[6]
  EHOMO: -9.23 eV

## COc1cc(C)c2c(=O)cc(-c3ccccc3)oc2c1 [compound 21, Methoxyvone]
[1]
  Iron complex Diss. Const: Inactive
[2]
  fold induction at 10 µM: 3.2 ± 0.35
[3]
  Neh2-luc fold activation: Inactive
[4]
  ODD-luc fold activation: Inactive

## CC(C)Oc1ccc2c(=O)c(-c3ccccc3)coc2c1 [compound 22, Ipriflavone]
[1]
  Iron complex Diss. Const: Inactive
[2]
  fold induction at 10 µM: 2.5 ± 0.3
[3]
  Neh2-luc fold activation: Inactive
[4]
  ODD-luc fold activation: Inactive

## O=c1c(-c2ccc(O)cc2)coc2cc(O)cc(O)c12 [compound 23, Genistein]
[1]
  Iron complex Diss. Const: Inactive
[2]
  fold induction at 10 µM: 1.5 ± 0.2
[3]
  Neh2-luc fold activation: Inactive
[4]
  ODD-luc fold activation: Inactive

## O=c1c(-c2ccc(O)cc2)coc2cc(O)cc(O)c12 [compound 24, 5-Hydroxy-daidzein]
[2]
  HRE-luc fold activation: Inactive

## O=c1c(-c2ccc(O)cc2)coc2c(O)c(O)ccc12 [compound 25, 8-Hydroxy-daidzein]
[1]
  Iron complex Diss. Const: 1.5 ± 0.3 µM
[2]
  HRE-luc fold activation: Inactive
[3]
  Neh2-luc fold activation: Inactive
[4]
  ODD-luc fold activation: Inactive

## O=c1c(-c2ccc(O)cc2)coc2cc(O)ccc12 [compound 26, Daidzein]
[1]
  Iron complex Diss. Const: Inactive
[2]
  HRE-luc fold activation: Inactive
[3]
  Neh2-luc fold activation: Inactive
[3]; listed as daidzein
  Neh2-luc fold activation: not
[4]
  ODD-luc fold activation: Inactive
[4]; listed as daidzein
  ODD-luc fold activation: did not cause any activation effect

## N[C@H](Cc1ccc(O)c(O)c1)C(=O)O [compound 30, 3,4-Dihydroxy-D-phenylalanine]
[1]
  Iron complex Diss. Const: 2.5 ± 0.3 µM
[2]
  HRE-luc fold activation: Inactive
[3]; Homo sapiens, SH-SY5Y
  EC50: 20 µM
[3]
  Neh2-luc fold activation: Inactive
[4]
  ODD-luc fold activation: Inactive

## O=C(NO)c1ccc(O)c(O)c1 [compound 33, 3,4-Dihydroxy-benzohydroxamate]
[1]
  Iron complex Diss. Const: 1.5 ± 0.3 µM
[2]
  HRE-luc: concentration above which active: Active above 100 µM
[3]
  EC50: 100 µM
  Neh2-luc fold activation: Inactive
[4]
  ODD-luc: concentration above which active: Active above 100 µM
[4]; listed as Didox
  ODD-luc: concentration above which active: above 100 µM

## O=C(O)CN(CC(=O)O)Cc1cc2c(cc1O)Oc1cc(O)c(CN(CC(=O)O)CC(=O)O)cc1C21OC(=O)c2ccccc21 [compound 34, Calcein, reference compound]
[1]
  Iron complex Diss. Const: 0.05 ± 0.01 µM
[2]
  fold induction at 10 µM: 1.7 ± 0.2
[3]
  Neh2-luc fold activation: Inactive
[4]
  fold induction at 10 µM: 2 ± 0.25
